The source of these data is patent publication US20240300886A1, “ARYLCYCLOHEXYLAMINE DERIVATIVES AND THEIR USE IN THE TREATMENT OF PSYCHIATRIC DISORDERS” (GILGAMESH PHARMACEUTICALS, INC., priority 2021, published 2024).

By Cmax is commonly meant the peak of the concentration-time curve. The term microsomal CLint denotes a measure of how fast metabolising enzymes remove a compound, apart from limits set by blood flow.

A short description of data set [1]: Oral bioavailability in rats, Method B (plasma and brain PK). It is filed as in vivo, Sprague Dawley rats. Conditions: for half-life / Cmax / AUC(0-inf): male, Sprague Dawley; for half-life / Cmax / AUC(0-inf) / AUC0-inf (iv) / AUC0-inf (po) / F: Method B; for AUC(0-inf) / AUC0-inf (iv) / AUC0-inf (po): values represent AUC0-last; for F: 1 mg/kg. How it is done: Animals. Male Sprague Dawley rats were used in these studies. Animals were randomly assigned to treatment groups and were fasted for 4 h before dosing.
Drugs. Test compounds were dissolved in a vehicle consisting of normal saline (for compounds used as the HCl salt) or normal saline slightly acidified with aq. HCl (for freebase compounds). They were then administered intravenously (iv) or orally (po) at a dose of […] (calculated based on freebase), as indicated, and at a volume of 5 mL/kg body weight. Compounds were tested as the racemates or pure enantiomers, as indicated.
Sample Collection and Bioanalysis. Blood samples (approximately 60 μL) were collected under light isoflurane anesthesia (Surgivet®) from the retro orbital plexus at 0.08, 0.25, 0.5, 1, 2, 4, 8, and 24 h (4 animals per time point). Immediately after blood collection, plasma was harvested by centrifugation at 4,000 rpm for 10 min at 4° C. and samples were stored at −70±10° C. until bioanalysis. Following blood collection, animals were immediately sacrificed, the abdominal vena-cava was cut open, and the whole body was perfused from the heart using 10 mL of normal saline, and brain samples were collected from all animals. After isolation, brain samples were rinsed three times in ice-cold normal saline (for 5-10 seconds/rinse using ˜-5-10 mL normal saline in disposable petri dish for each rinse) and dried on blotting paper. Brain samples were homogenized using ice-cold phosphate-buffered saline (pH 7.4). Total homogenate volume was three times the tissue weight. All homogenates were stored at −70±10° C. until bioanalysis. For bioanalysis, 25 μL aliquots of plasma/brain study samples or spiked plasma/brain calibration standards were added to individual pre-labeled micro-centrifuge tubes followed by 100 μL of an internal standard solution (glipizide, 500 ng/mL in acetonitrile) except for blanks, where 100 μL of acetonitrile was added. Samples were vortexed for 5 minutes and then centrifuged for 10 minutes at 4,000 rpm at 4° C. Following centrifugation, 100 μL of each clear supernatant was transferred to a 96 well plate and analyzed with a fit-for-purpose LC-MS/MS method, with authentic samples of each analyte used for calibration and identification.
Data Analysis. Pharmacokinetic parameters were estimated using the non-compartmental analysis tool of Phoenix® WinNonlin software (Ver 8.0).

Data set [2] is described as follows: Stability in liver microsomes (Example 21), Gottingen minipig. It is filed as in vitro ADME. The conditions noted are these: male, pH 7.4, 0.5 mg/mL protein. How it is done: (§1) General Procedure. Briefly, test compounds (final concentration 1 μM) were incubated in duplicate with liver microsomes from male animals of the indicated species (final protein concentration 0.5 mg/mL) in 50 mM sodium phosphate buffer (pH 7.4) with or without NADPH (1 mM). Total incubation volume was 500 μL. At 0, 5, 15, 30, and 60 min, aliquots of 50 μL were withdrawn, quenched with acetonitrile (150 μL), and analyzed for parent compound remaining using a fit-for-purpose LC-MS/MS method. Intrinsic clearance and half-life were calculated. Clearance values below zero were rounded to zero.

Data set [3] deals with recombinant human NMDA receptor (GRIN1/GRIN2B) (Homo sapiens (Human), UniProt Q05586+Q13224). The experiment in a line: Unblocking kinetics at the NMDA receptor in Xenopus laevis oocytes (two-electrode voltage clamp). It is filed as cell-based. Conditions: for Unblocking T1/2 ± SEM: compounds applied at 3×IC50, -70 mV, n ≥ 5. The procedure: Compounds 2R, 2S, and 2-(2-fluorophenyl)-2-(methylamino)cyclohexan-1-one 2-F-DCK were tested for unblocking kinetics at the NMDA receptor in Xenopus laevis oocytes expressing recombinant human NMDA receptor (GRIN1/GRIN2B) (Table 22).
Experimental Procedure. Oocytes were harvested from adult Xenopus laevis and incubated in 96 well plates for two to four days prior to recordings. Plasmids containing cDNA encoding for human NMDA receptor subunits GRIN1 and GRIN2B were transcribed using the mMessage mMachine T7 transcription kit (Ambion, USA). The Roboocyte automated injection system was used for injection of cRNA coding for hNMDA receptor subunits at a concentration of 100 ng/μL per subunit. Oocytes were clamped to a holding potential of −70 mV and induced currents after compound application were sampled at 200 Hz at room temperature. Agonist induced currents were recorded with a two-electrode voltage clamp. To determine the unblocking kinetics, glutamate and glycine (3 and 10 μM, respectively) were applied to the oocytes and the current recorded for 90 s. Then, compounds were applied at 3×IC50 for 120 s and the currents recorded.
(Two-electrode voltage clamp is typically applied to oocytes expressing channels or transporters.)

Data set [4] in a line: Stability in liver microsomes (Example 21), beagle dog. Conditions: male, pH 7.4, 0.5 mg/mL protein. It is filed as in vitro ADME. How it is done: as §1
In general terms: Liver microsomes are a subcellular fraction often used to study metabolism.

Where [5] appears, read: rat brain, 1 mg/kg iv, read-out: t1/2 (iv).
The mark [6] stands for this setting: rat brain, 1 mg/kg po, read-out: t1/2 (po).
Where [7] appears, read: rat plasma, 1 mg/kg iv, read-out: t1/2 (iv).
Where [8] appears, read: rat plasma, 1 mg/kg iv, read-out: AUC0-inf (iv) (converted).
Setting [9] is: rat plasma, 1 mg/kg po, read-out: t1/2 (po).
The mark [10] stands for this setting: rat plasma, 1 mg/kg po, read-out: AUC0-inf (po) (converted).
Setting [11] is: rat brain, calculated based on brain exposure (AUC0-last).

Like-named read-outs stand apart in the source and are kept apart here.

recombinant human NMDA receptor (GRIN1/GRIN2B), sequence (Q13224 whole entry, looked up, other chains not shown): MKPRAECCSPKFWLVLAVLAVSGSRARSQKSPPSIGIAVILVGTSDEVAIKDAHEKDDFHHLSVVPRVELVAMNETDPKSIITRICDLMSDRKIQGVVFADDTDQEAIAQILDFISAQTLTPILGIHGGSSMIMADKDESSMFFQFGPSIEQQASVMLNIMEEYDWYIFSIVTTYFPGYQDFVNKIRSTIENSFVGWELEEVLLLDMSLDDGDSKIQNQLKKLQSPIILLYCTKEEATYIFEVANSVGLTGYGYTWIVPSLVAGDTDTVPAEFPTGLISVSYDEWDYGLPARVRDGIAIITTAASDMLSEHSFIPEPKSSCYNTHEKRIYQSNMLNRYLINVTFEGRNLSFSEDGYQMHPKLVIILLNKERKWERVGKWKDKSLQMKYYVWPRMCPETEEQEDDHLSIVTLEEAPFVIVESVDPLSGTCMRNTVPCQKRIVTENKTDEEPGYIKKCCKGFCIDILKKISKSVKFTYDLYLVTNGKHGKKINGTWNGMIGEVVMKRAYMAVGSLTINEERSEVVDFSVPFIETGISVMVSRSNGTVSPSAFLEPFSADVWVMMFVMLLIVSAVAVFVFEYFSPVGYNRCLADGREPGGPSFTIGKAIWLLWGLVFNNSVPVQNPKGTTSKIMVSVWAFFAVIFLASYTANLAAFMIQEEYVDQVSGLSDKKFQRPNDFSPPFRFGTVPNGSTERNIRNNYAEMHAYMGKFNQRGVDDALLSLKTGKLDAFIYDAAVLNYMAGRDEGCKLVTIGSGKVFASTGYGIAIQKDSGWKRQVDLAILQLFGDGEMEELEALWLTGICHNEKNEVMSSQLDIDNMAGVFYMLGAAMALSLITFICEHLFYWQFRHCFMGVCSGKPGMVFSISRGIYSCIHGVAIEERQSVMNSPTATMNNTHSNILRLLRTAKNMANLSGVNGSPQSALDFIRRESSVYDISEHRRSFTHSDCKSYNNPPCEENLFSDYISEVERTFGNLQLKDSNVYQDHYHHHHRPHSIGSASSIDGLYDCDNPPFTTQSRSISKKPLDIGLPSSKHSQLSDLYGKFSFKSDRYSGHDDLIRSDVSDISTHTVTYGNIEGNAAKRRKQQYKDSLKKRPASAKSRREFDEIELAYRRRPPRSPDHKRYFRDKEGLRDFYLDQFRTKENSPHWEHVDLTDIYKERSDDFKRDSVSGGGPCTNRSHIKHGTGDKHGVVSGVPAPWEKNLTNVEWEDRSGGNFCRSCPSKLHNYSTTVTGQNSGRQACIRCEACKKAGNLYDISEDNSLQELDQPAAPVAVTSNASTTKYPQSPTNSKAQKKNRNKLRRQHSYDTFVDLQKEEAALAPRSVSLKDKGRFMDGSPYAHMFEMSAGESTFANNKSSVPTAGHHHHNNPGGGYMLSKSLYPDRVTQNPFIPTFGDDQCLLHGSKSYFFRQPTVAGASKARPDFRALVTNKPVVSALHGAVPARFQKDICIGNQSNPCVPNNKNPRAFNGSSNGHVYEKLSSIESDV

With `N[C@]1(c2ccc(F)cc2)CCCCC1=O` [Compound 1S, (S)-2-amino-2-(4-fluorophenyl)cyclohexan-1-one], the half-life was 4.09 h in data set [1] (setting [5]), 7.11 h in data set [1] (setting [6]), 2.58 h in data set [1] (setting [7]) and 3.88 h in data set [1] (setting [9]). For the same compound, the Cmax in data set [1] (rat brain, 1 mg/kg po) came to 167 ng/g; in data set [1] (rat plasma, 1 mg/kg po) it was 234 ng/mL. The AUC(0-inf) in data set [1] (setting [8]) was 805 ng·h/mL; in data set [1] (setting [10]) it was 1140 ng·h/mL. Moreover, in data set [1] (rat brain, 1 mg/kg iv), the “AUC0-inf (iv)” value is 126462 ng·min/g. Besides, in data set [1] (rat brain, 1 mg/kg po), the “AUC0-inf (po)” value is 79272.6 ng·min/g. Further, the F in data set [1] (setting [11]) is listed as 62.7%; in data set [1] (rat plasma, based on AUC0-last) it was over 100%.
For the compound `CN[C@@]1(c2ccc(F)cc2)CCCCC1=O` [Compound 2R, (R)-2-(4-fluorophenyl)-2(methylamino)cyclohexan-1-one], the microsomal CLint at 1 μM in data set [2] is 16.4 µL/min/mg; in data set [4], 10.5 µL/min/mg. The half-life in data set [1] (setting [5]) stood at 0.0633 h; in data set [1] (setting [6]), 0.99 h; in data set [1] (setting [7]) it was 2.77 h; in data set [1] (setting [9]) it was 1.58 h. Also, the Cmax in data set [1] (rat brain, 1 mg/kg po) turned out to be 42.8 ng/g; in data set [1] (rat plasma, 1 mg/kg po) it was 17.7 ng/mL. In addition, the values for the AUC(0-inf) in data set [1] (setting [8]) and in data set [1] (setting [10]) were 163 ng·h/mL and 50.3 ng·h/mL, respectively. The “AUC0-inf (iv)” value in data set [1] (rat brain, 1 mg/kg iv) was found to be 27152.4 ng·min/g. The “AUC0-inf (po)” value in data set [1] (rat brain, 1 mg/kg po) was 4915.8 ng·min/g. Moreover, the F in data set [1] (setting [11]) is reported as 18.1%; in data set [1] (rat plasma, based on AUC0-last), 31%. For the same compound, the “brain exposure after oral administration compared to enantiomer 2S” value in data set [1] (rats) is on record as “substantially higher brain exposure”. In addition, the “half-life for unblocking compared to 2-F-DCK (in words)” value in data set [3] is “much shorter half-life for unblocking”. Moreover, the “Unblocking T1/2 ± SEM” value in data set [3] turned out to be 22.7 ± 2.3 s.
As for `CN[C@]1(c2ccc(F)cc2)CCCCC1=O` [Compound 2S, (S)-2-(4-fluorophenyl)-2-(methylamino)cyclohexan-1-one], the microsomal CLint at 1 μM was found to be 20.3 µL/min/mg in data set [2] and 7.3 µL/min/mg in data set [4]. The half-life in data set [1] (setting [5]) was 0.7 h; in data set [1] (setting [7]), 0.7 h; in data set [1] (setting [9]), 1.46 h. The Cmax is 47.6 ng/g in data set [1] (rat brain, 1 mg/kg po) and 32.3 ng/mL in data set [1] (rat plasma, 1 mg/kg po). Also, the AUC(0-inf) is 186 ng·h/mL in data set [1] (setting [8]) and 37.8 ng·h/mL in data set [1] (setting [10]). Further, the “AUC0-inf (iv)” value in data set [1] (rat brain, 1 mg/kg iv) came out at 68000.4 ng·min/g. Moreover, the “AUC0-inf (po)” value in data set [1] (rat brain, 1 mg/kg po) is 3067.2 ng·min/g. Also, the F in data set [1] (setting [11]) is 4.5%; in data set [1] (rat plasma, based on AUC0-last), 20%. Besides, the “half-life for unblocking compared to 2-F-DCK (in words)” value in data set [3] was “much shorter half-life for unblocking”. Besides, the “Unblocking T1/2 ± SEM” value in data set [3] was found to be 27.0 ± 6.1 s.
